Assay results as given in patent US20250215016A1, “ISOXAZOLE-HETEROCYCLIC DERIVATIVE, PHARMACEUTICAL COMPOSITION AND USE” (SHANGHAI SIMR BIOTECHNOLOGY CO., LTD, priority 2022, published 2025).

Key:
[1] = molecular target: human α5β3γ2 receptor (α5-GABAA receptor) (Homo sapiens (Human), UniProt P18507+P31644); experiment: Radioligand (3H-flunitrazepam) competition binding assay, BZD site; details: 3H-flunitrazepam 1 nM; HEK293 membranes expressing human α5β3γ2
From the text: α, β and γ subunits are essential for the formation of a complete functional GABAA receptor. In this example, HEK293 cell strains stably expressing human α5-GABAA receptor (comprising α5β3γ2 subunit) and α2-GABAA receptor (comprising α2β3γ2 subunit) were constructed and screened, respectively, by liposome transfection method (Felgner, P. L., et al., Proceedings of the National Academy of Sciences, 1987, 84:7413-7417). The specific subunit protein sequences are as follows: α5 subunit (protein sequence can be found in GenBank accession number: NM_000810.3); α2 subunit (protein sequence can be found in GenBank accession number: NM_000807.4); β3 subunit (protein sequence can be found in GenBank accession number: NM_000814.5); γ2 subunit (protein sequence can be found in GenBank accession number: NM_000816.3).
(§1) The above cell lines were subcultured. Amplification of α5β3γ2-HEK293 and α2β3γ2-HEK293 cells was used to test the affinity of the compounds to benzodiazepine site (BZD) of the GABAA receptor. During the passage of α5β3γ2-HEK293 cells, some of the suspended cells were spread on a glass slide pretreated with Poly-D-Lysine for electrophysiological testing.
Flunitrazepam is a non-specific reagent that binds to the BZD site efficiently. The affinity of the compounds to the BZD sites of the human α5β3γ2 and α2β3γ2 receptors can be determined by competing the compound with ^3H-flunitrazepam (isotope ^3H-labeled flunitrazepam) for binding to these two receptors.
Membrane preparation: HEK293 cells stably expressing human α5β3γ2 receptor or α2β3γ2 receptor were collected, suspended in 50 mM Tris-HCl buffer (pH=7.4), homogenized on ice by a homogenizer for 20 seconds 10 times, and centrifuged at 4° C., 1000 g for 10 min. The supernatant was collected, and the above steps were repeated. The supernatant was centrifuged (33800 g; centrifuge purchased from Thermo, rotor model: A27-8×50) at 4° C. for 60 min, and the precipitate was resuspended in Tris buffer (50 mM Tris-HCl, 10 mM MgCl2, 0.5 mM EDTA, 10% glycerol). The precipitate was the cell membrane. Protein content was determined by BCA (Bicinchoninic Acid) method (BCA kit from Pierce (Annoron)). The cell membrane was prepared into 1 ml aliquot and stored at −80° C.
Radioligand competition binding assay: the assay was carried out in a 200 μL system (96-well plate from Agilent) with 100 μL of cell membrane. The concentration of ^3H-flunitazepam (from PerkinElmer, lot: NET567250 UC) was 1 nM and the concentration of test compound was in the range 1×10^−5-10^−6 M. Flumazenil (from Tocris; lot: 1318) was used as a control. 1 μL of 2 mM flumazenil (final concentration 10 μM) was added to the Low signal control well (Low control, LC) and 1 μL of DMSO (from Sigma aldrich, lot: 472301) was added to the High signal control well (High control, HC). The final target membrane protein concentration was 5 μg/well. All test compound sample stocks were 10 mM DMSO solutions. The working concentration of the samples is to dilute all samples with DMSO to 0.2 mM, and then perform 4-fold continuous gradient dilution for a total of 8 concentration gradients. The 96-well plate was sealed with a plate sealing membrane and then incubated on a shaker at room temperature for 1 hour. Meanwhile, GF/C filter plate was soaked with a plate soaking buffer (0.3% PEI, polyethyleneimine, purchased from Sigma aldrich, model: P314, stored at 4° C.) for at least 0.5 hours. After completion of binding incubation, the cells were collected with a cell collector onto the GF/C filter plate and washed four times with a plate washing buffer (50 mM Tris-HCl, pH 7.4, stored at 4° C.). […]

α5-GABAA receptor = α5-GABAA receptor (Homo sapiens (Human), UniProt P18507+P31644); experiment: Whole-cell patch clamp electrophysiology, inverse regulation activity in α5β3γ2-HEK293 cells; format: cell-based; details: compound 100 nM; GABA 0.05-0.06 μM (about EC7-8); clamped at −60 mV; read-out: Inverse regulation efficiency to α5-GABAA receptor
From the text: α, β and γ subunits are essential for the formation of a complete functional GABAA receptor. […] The specific subunit protein sequences are as follows: α5 subunit (protein sequence can be found in GenBank accession number: NM_000810.3); α2 subunit (protein sequence can be found in GenBank accession number: NM_000807.4); β3 subunit (protein sequence can be found in GenBank accession number: NM_000814.5); γ2 subunit (protein sequence can be found in GenBank accession number: NM_000816.3).
as §1
The inverse regulation activity of the test drugs on α5-GABAA receptor was detected by an electrophysiological method. The specific method was as follows:
Compound concentration setting: the final concentration of the compounds used for compound screening was 100 nM. GABA concentration was 0.05-0.06 μM (about EC7-8). […] The extracellular fluid (ECS) ingredients for electrophysiology were as follows: 150 mM NaCl, 5 mM KCl, 2.5 mM CaCl2, 1 mM MgCl2, 10 mM HEPES and 10 mM glucose (pH 7.4); the electrode internal solution (ICS) formula for electrophysiology was as follows: 140 mM CsCl, 11 mM EGTA, 10 mM HEPES, 2 mM CaCl2, 1 mM MgCl2, 4 mM MgATP, 2 mM TEA (pH 7.3). The above reagents were all purchased from Sigma aldrich. GABA (γ-aminobutyric acid, from sigma aldrich, lot: A5385) powder was prepared into a stock solution with pure water and then diluted in ECS. The compound was first prepared into a 4 mM stock solution with DMSO, and then gradually diluted in corresponding concentrations of GABA-ECS. The solutions were all prepared fresh prior to electrophysiological testing.
Electrophysiological signal acquisition were performed by using EPC 10 amplifier and PatchMaster software (HEKA) or Axon 700 B amplifier and Clampex software (AXON). The recording electrode was made by drawing borosilicate glass (purchased from sutter), and has an electrode resistance of 4˜6 MΩ. Extracellular administration was carried out using ALA-VC-8PG (purchased from ALA, USA) system. A single independently grown cell was selected, and lysis was performed after the glass electrode and the cell forming a good seal, to form a whole cell mode. With the cellular membrane potential clamped at −60 mV, recording was carried out in the Gap-free mode. For the test, extracellular fluid was first applied extracellularly for about 20 seconds. After baseline (Iprebaseline) was stabilized, the extracellular fluid was switched to GABA-ECS. At this time, the current (Igaba) caused by GABA can be detected. At about 20-40 seconds, after the current stabilized, the extracellular fluid was switched to a mixed solution of the compound and GABA-ECS, until the current (Itreatment) caused by both the compound and GABA can be detected. Finally, the solution was switched to the extracellular fluid and the test was terminated after recording for 20-40 seconds.
The experimental results were analyzed using PatchMaster v2x90.1 or PatchMaster v2x90.3 software (EPC 10 amplifier) and Clampex10.6 software (Axon700B amplifier). The current value of each stage was calculated according to the average value of the stabilized current under the corresponding conditions. We defined the control current as Igaba−Iprebaseline, and the current after compound treatment as Itreatment−Iprebaseline. The inverse regulation activity of the compounds is expressed as a percentage and is calculated according to the following formula: Inverse regulation efficiency=[(Itreatment−Igaba)/(Igaba−Iprebaseline)]×100%.

[2] = Stability in simulated gastric fluid (SGF); format: physicochemical; details: 37° C., 1000 rpm
Procedure: Simulated gastric fluid (SGF), Manufacturer: Dongguan Chuangfeng Automation Technology Co., Ltd.; Product model: CF-006.
Oscillating constant temperature metal bath, Model: Thermo; Manufacturer: Digital Skaking Drybath.
Temperature: 37° C.; rotating speed: 1000 rpm; sampling time: 0, 4 hours.
Chromatographic column: Welch Xtimate C18 3.0×100 mm, 5 μm. Mobile phase: A: 0.04% trifluoroacetic acid (TFA)/H2O (v/v), B: acetonitrile (ACN). Gradient elution was performed according to the following table, flow rate: 1.0 mL/min; injection volume: 5 μL; column temperature: 35° C.; wavelength: 254 nm.
• (a) preparation of 0.04% TFA/H2O: 400 μL of TFA was measured, placed into 1 L of H2O, and homogenously mixed; • (b) Sample stock solution: about 3 mg of test sample was weighed, and prepared into a stock solution of 10 mmol/L using DMSO; • (c) 50 μL of the sample stock solution was taken, placed into a 5 mL volumetric flask, made up to the scale with the addition of SGF, and homogenously mixed. 400 μL of the solution was taken, four samples in parallel, and shaken at 1000 rpm and 37° C.; • (d) every two samples were taken after 0 and 4 hours respectively, 400 μL of acetonitrile was added, and homogenously mixed, followed by liquid phase injection, and calculation of the change % of the main peak area in the solution after 4 hours relative to 0 hour, two average value reports being taken at each time point.

Cc1onc(-c2ccc(F)cc2)c1COc1ccc(-c2nnc3n2CCN(C)C3=O)cn1 [Compound 2, 3-(6-((3-(4-fluorophenyl)-5-methylisoxazol-4-yl)methoxy)pyridin-3-yl)-7-methyl-6,7-dihydro-[1,2,4]triazolo[4,3-a]pyrazin-8 (5H)-one]
Ki [1]: 7.7 nM | inhibition at 0.1 µM (α5-GABAA receptor): 29% | Residual content in simulated gastric juice after 4 hours (compared with 0 hour content) [2]: 46% (4 hours)

Cc1onc(-c2ccc(F)cc2)c1COc1cnc(-c2nnc3n2CCN(C)C3)cn1 [Compound 16]
Ki [1]: 6.93 nM | inhibition at 0.1 µM (α5-GABAA receptor): 15% | Residual content in simulated gastric juice after 4 hours (compared with 0 hour content) [2]: 76% (4 hours)

Cc1onc(-c2ccc(F)cc2)c1COc1cnc(-c2nnn3c2COCC3)cn1 [Compound 12, 3-(5-((3-(4-fluorophenyl)-5-methylisoxazol-4-yl)methoxy)pyrazin-2-yl)-6,7-dihydro-4H-[1,2,3]triazolo[5,1-c][1,4]oxazine]
Ki [1]: 2.6 nM | inhibition at 0.1 µM (α5-GABAA receptor): 24% | Residual content in simulated gastric juice after 4 hours (compared with 0 hour content) [2]: 93% (4 hours)

Cc1onc(-c2ccc(F)cc2)c1COc1cnc(-c2cnn3c2COCC3)cn1 [Compound 44, 3-(5-((3-(4-fluorophenyl)-5-methylisoxazol-4-yl)methoxy)pyrazin-2-yl)-6,7-dihydro-4H-pyrazolo[5,1-c][1,4]oxazine]
Ki [1]: 0.99 nM | inhibition at 0.1 µM (α5-GABAA receptor): 36% | Residual content in simulated gastric juice after 4 hours (compared with 0 hour content) [2]: 94% (4 hours)

Cc1onc(-c2ccc(F)cc2)c1COc1cnc(N2CCn3c(C)nnc3C2)cn1 [Compound 27]
Ki [1]: 3.9 nM | inhibition at 0.1 µM (α5-GABAA receptor): 39% | Residual content in simulated gastric juice after 4 hours (compared with 0 hour content) [2]: 63% (4 hours)

Cc1onc(-c2ccc(F)cc2)c1COc1cnc(-c2nnc3n2CCN(C2CCC2)C3=O)cn1 [Compound 4, 7-cyclobutyl-3-(5-((3-(4-fluorophenyl)-5-methylisoxazol-4-yl)methoxy)pyrazin-2-yl)-6,7-dihydro-[1,2,4]triazolo[4,3-a]pyrazin-8(5H)-one]
Residual content in simulated gastric juice after 4 hours (compared with 0 hour content) [2]: 89% (4 hours)

Cc1onc(-c2ccc(F)cc2)c1COc1cnc(-c2cc3n(c(=O)n2)CCN3C)cn1 [Compound 47, 7-(5-((3-(4-fluorophenyl)-5-methylisoxazol-4-yl)methoxy)pyrazin-2-yl)-1-methyl-2,3-dihydroimidazo[1,2-c]pyrimidin-5(1H)-one]
inhibition at 0.1 µM (α5-GABAA receptor): 31% | Residual content in simulated gastric juice after 4 hours (compared with 0 hour content) [2]: 82% (4 hours)

Cc1onc(-c2ccc(F)cc2)c1COc1ccc(C(=O)NC2CCOCC2)nn1 [WO2009071477, Example 63, reference compound]
Residual content in simulated gastric juice after 4 hours (compared with 0 hour content) [2]: 0% (4 hours)

Cc1onc(-c2ccc(F)cc2)c1COc1ccc(C(=O)NC2CCOCC2)cn1 [WO2009071476, Example 109, reference compound]
Residual content in simulated gastric juice after 4 hours (compared with 0 hour content) [2]: 15% (4 hours)

Cc1onc(-c2ccc(F)cc2)c1COc1cnc(-c2cc3n(c(=O)n2)CC24CC(CN32)C4)cn1 [Compound 9, 3-(5-((3-(4-fluorophenyl)-5-methylisoxazol-4-yl)methoxy)pyrazin-2-yl)-7,8-dihydro-1H,6H,9H-7,8a-methanopyrrolo[1′,2′:3.4]imidazo[1,2-c]pyrimidin-1-one]
Residual content in simulated gastric juice after 4 hours (compared with 0 hour content) [2]: 64% (4 hours)

Cc1onc(-c2ccc(F)cc2)c1COc1cnc(N2CCn3c(nnc3C(F)(F)F)C2=O)cn1 [Compound 26, 7-(5-((3-(4-fluorophenyl)-5-methylisoxazol-4-yl)methoxy)pyrazin-2-yl)-3-(trifluoromethyl)-6,7-dihydro-[1,2,4]triazolo[4,3-a]pyrazin-8(5H)-one]
Residual content in simulated gastric juice after 4 hours (compared with 0 hour content) [2]: 80% (4 hours)

Cc1onc(-c2ccc(F)cc2)c1COc1cnc(N2CCn3cccc3C2=O)cn1 [Compound 45, 2-(5-((3-(4-fluorophenyl)-5-methylisoxazol-4-yl)methoxy)pyrazin-2-yl)-3,4-dihydropyrrolo [1,2-a]pyrazin-1(2H)-one]
Residual content in simulated gastric juice after 4 hours (compared with 0 hour content) [2]: 87% (4 hours)
